In the data set the test system is HaCaT cells. The experiment in a line: Relief of 5-FU proliferative toxicity to HaCaT cells (CCK-8 cell survival). It is filed as cell-based. The conditions noted are these: for activation at 1 µM: compound 1 μM; for activation at 5 µM: compound 5 μM; for activation at 10 µM: compound 10 μM; for activation at 50 µM: compound 50 μM; for activation at 100 µM: compound 100 μM; for activation at 200 µM: compound 200 μM; for activation at 500 µM: compound 500 μM; for activation at 1000 µM: compound 1000 μM; for Cell Survival Rate (increased percentage of cell survival compared with the Group of 5-FU): 5-Fu 20 μM, HaCaT cells. On the procedure: The cultured skin cell HaCaTs were digested, counted, and inoculated into a 96-well plate with 5000-10000 cells in each well. After 24 h of culture, the wells were divided into Group of blank solvent control, Group of 5-FU, Group of 5-FU+thymidine derivative, Group of 5-FU+the combination of thymidine derivative and uridine derivative. […] adding a solution of 5-FU and a solution of thymidine derivative (the final concentrations of 5-FU and thymidine derivative are shown in Table 3, the solution of thymidine is an aqueous solution, while the solutions of thymidine derivatives are all DMSO solutions); Group of 5-FU+the combination of thymidine derivative and uridine derivative: adding a solution of 5-FU and a mixed solution of thymidine derivative and uridine derivative (the final concentrations of the solution of 5-FU and the mixed solution of thymidine derivative+uridine derivative are shown in Table 3, the solution of thymidine is an aqueous solution, while the mixed solutions of thymidine derivative+uridine derivative are all DMSO solutions); Group of blank solvent control: adding the same type of solution as those of the corresponding Group of 5-FU or Group of 5-FU+thymidine derivative (or the mixed solution of thymidine derivative+uridine derivative) in equal volume. Group of blank solvent control was used as control to exclude the influence of the solvents in Group of 5-FU and Group of 5-FU+thymidine derivative (or the mixed solution of thymidine derivative+uridine derivative) on the results. After additional 48 hours of culture, a Cell Counting Kit-8 (CCK-8) detection kit (C0037, purchased from Shanghai Beyotime Biotechnology) is used to determine the cell survival rate, thereby calculating the proliferative toxicity of 5-Fu/5-DFUR on cells and the relieving effect of the thymidine derivative (or the mixed solution of thymidine derivative+uridine derivative) on the proliferative toxicity. Using GraphPad Prism 6.0 software, the results were statistically analyzed by t-test and plotted.
Table 3 lists the combinations of 5-FU and thymidine derivative (or the mixed solution of thymidine derivative+uridine derivative), and the corresponding experimental results (wherein the data in the column of cell survival indicate the corresponding increased percentage of the cell survivals of Group of 5-FU+thymidine derivative or Group of 5-FU+the combination of thymidine derivative and uridine derivative compared with the Group of 5-FU). FIGS. 3-10 list the experimental results of several representative compounds.
The effect of thymidine derivative or a combination of thymidine derivative and uridine derivative on relieving the proliferative toxicity of a chemotherapeutical drug (5-FU) to HaCaT cells was tested according to the method in Examples 2-29. The test thymidine derivative or the combination of thymidine derivative and uridine derivative, as well as the final concentration of the test compounds were shown in Table 7.
Table 7 lists the combinations of 5-FU and thymidine derivative (or the mixed solution of thymidine derivative+uridine derivative), and the corresponding experimental results (wherein the data in the column of cell survival indicate the corresponding increased percentage of the cell survivals of Group of 5-FU+thymidine derivative or Group of 5-FU+the combination of thymidine derivative and uridine derivative compared with the Group of 5-FU). FIGS. 15-21 list the experimental results of several exemplary compounds.

The mark [1] stands for this setting: Homo sapiens, HaCaT, increase vs Group of 5-FU, 5-FU 20 μM, 48 h, read-out: Cell Survival Rate.
The mark [2] stands for this setting: selected compound final concentration 0.8 μM.
Setting [3] is: selected compound final concentration 1.6 μM.
Where [4] appears, read: selected compound final concentration 3.13 μM.
Setting [5] is: selected compound final concentration 6.25 μM.
[6] abbreviates: selected compound final concentration 12.5 μM.
The mark [7] stands for this setting: selected compound final concentration 25 μM.
Where [8] appears, read: selected compound final concentration 50 μM.

The values that follow come from patent publication US20230405003A1, “APPLICATION OF THYMIDINE DERIVATIVE IN PREPARATION OF DRUGS” (ONQUALITY PHARMACEUTICALS CHINA LTD., priority 2020, published 2023).

For the molecule `Cc1cn([C@H]2C[C@H](OC(=O)C3CCCC3)[C@@H](COC(=O)C3CCCC3)O2)c(=O)[nH]c1=O` [T8], under setting [1], the activation at 1 µM is 15 to 25%, the activation at 5 µM was in the range of 27 to 37%, the activation at 10 µM was 35 to 45% and the activation at 50 µM is 32 to 39%. Under setting [1], the activation at 100 µM was 40 to 47% and the activation at 200 µM was in the range of 3 to 9%.

Consider `Cc1cn([C@H]2C[C@H](OC(=O)C3CC3)[C@@H](COC(=O)C3CC3)O2)c(=O)[nH]c1=O` [T9], for which, under setting [1], the activation at 1 µM was -10 to -3%, the activation at 10 µM was 10 to 18%, the activation at 50 µM was in the range of 24 to 31% and the activation at 200 µM fell in the range of 27 to 34%. Further, under setting [1], the activation at 500 µM lay within 30 to 38% and the activation at 1000 µM lay in the range of 35 to 40%. Besides, the activation at 1500 µM (Homo sapiens, HaCaT, increase vs Group of 5-FU, 5-FU 20 μM, compound 1500 μM, 48 h, read-out: Cell Survival Rate) is 13 to 20%.

Turning to `Cc1cn([C@H]2C[C@H](OC(=O)Cc3ccccc3)[C@@H](COC(=O)Cc3ccccc3)O2)c(=O)[nH]c1=O` [T10], under setting [1], the activation at 1 µM was in the range of 5 to 10%, the activation at 5 µM was in the range of 35 to 45%, the activation at 10 µM lay within 60 to 70% and the activation at 50 µM lay within 65 to 75%. Further, the activation at 2 µM (Homo sapiens, HaCaT, increase vs Group of 5-FU, 5-FU 20 μM, compound 2 μM, 48 h, read-out: Cell Survival Rate) was 14 to 22%. For the same molecule, the activation at 20 µM (Homo sapiens, HaCaT, increase vs Group of 5-FU, 5-FU 20 μM, compound 20 μM, 48 h, read-out: Cell Survival Rate) was in the range of 65 to 75%.

In the case of `Cc1cn([C@H]2C[C@H](O)[C@@H](COC(=O)OC3CC3)O2)c(=O)[nH]c1=O` [T11], under setting [1], the activation at 1 µM was -5 to 0%, the activation at 5 µM lay within 11 to 16%, the activation at 10 µM was in the range of 27 to 33% and the activation at 50 µM lay in the range of 35 to 45%. Under setting [1], the activation at 100 µM is 38 to 45%, the activation at 200 µM is 38 to 46%, the activation at 500 µM lay within 40 to 50% and the activation at 1000 µM was in the range of 7 to 14%.

Take `Cc1cn([C@H]2C[C@H](OC(=O)NC3CCCC3)[C@@H](COC(=O)NC3CCCC3)O2)c(=O)[nH]c1=O` [T12]: under setting [1], the activation at 1 µM was in the range of 0 to 5% and the activation at 10 µM was 9 to 16%.

As for `Cc1cn([C@H]2C[C@H](OC(=O)C(C)C)[C@@H](COC(=O)C(C)C)O2)c(=O)[nH]c1=O` [T13], under setting [1], the activation at 1 µM lay in the range of 15 to 25%, the activation at 10 µM was in the range of 40 to 50% and the activation at 100 µM lay in the range of 25 to 35%.

For `Cc1cn([C@H]2C[C@H](OC(=O)Oc3ccccc3)[C@@H](COC(=O)Oc3ccccc3)O2)c(=O)[nH]c1=O` [T14], under setting [1], the activation at 1 µM was in the range of 12 to 20%, the activation at 10 µM lay in the range of 30 to 40% and the activation at 100 µM lay in the range of 8 to 15%.

Turning to `Cc1cn([C@H]2C[C@H](OC(=O)NC3CC3)[C@@H](COC(=O)NC3CC3)O2)c(=O)[nH]c1=O` [T15], under setting [1], the activation at 1 µM lay in the range of 13 to 20%, the activation at 10 µM lay in the range of 13 to 20%, the activation at 100 µM was 20 to 30% and the activation at 500 µM lay within 25 to 35%. Further, under setting [1], the activation at 1000 µM fell in the range of 9 to 16%.

On to `Cc1cn([C@H]2C[C@H](OC(=O)Nc3ccccc3)[C@@H](COC(=O)Nc3ccccc3)O2)c(=O)[nH]c1=O` [T16], for which, under setting [1], the activation at 1 µM lay in the range of 0 to 5% and the activation at 10 µM is 7 to 14%.

In the case of `CC(=O)NC[C@H]1O[C@@H](n2cc(C)c(=O)[nH]c2=O)C[C@@H]1OC(C)=O` [T17], under setting [1], the activation at 1 µM is 15 to 25%, the activation at 10 µM lay within 18 to 26%, the activation at 100 µM lay within 25 to 35% and the activation at 200 µM lay in the range of 30 to 40%. Also, the activation at 500 µM under setting [1] was 35 to 45%.

As to `Cc1cn([C@H]2C[C@H](O)[C@@H](CO[Si](C)(C)C(C)(C)C)O2)c(=O)[nH]c1=O` [T18], under setting [1], the activation at 1 µM lay within 6 to 12% and the activation at 10 µM fell in the range of 7 to 15%.

Consider `Cc1cn([C@H]2C[C@H](O)[C@@H](COC(=O)OCc3ccccc3)O2)c(=O)[nH]c1=O` [T19], for which, under setting [1], the activation at 1 µM lay in the range of 35 to 45%, the activation at 10 µM lay in the range of 60 to 70%, the activation at 100 µM fell in the range of 58 to 67% and the activation at 500 µM lay within 35 to 45%.

With `Cc1cn([C@H]2C[C@H](OC(=O)OCC(C)C)[C@@H](COC(=O)OCC(C)C)O2)c(=O)[nH]c1=O` [T20], under setting [1], the activation at 1 µM lay within 48 to 58%, the activation at 10 µM lay in the range of 58 to 66% and the activation at 100 µM lay in the range of 55 to 65%.

For `Cc1cn([C@H]2C[C@H](OC(=O)OCC(C)(C)C)[C@@H](COC(=O)OCC(C)(C)C)O2)c(=O)[nH]c1=O` [T21], under setting [1], the activation at 1 µM lay in the range of 5 to 13% and the activation at 10 µM lay within 19 to 26%.

Consider `Cc1cn([C@H]2C[C@H](OC(=O)OC(C)C)[C@@H](COC(=O)OC(C)C)O2)c(=O)[nH]c1=O` [T22], for which, under setting [1], the activation at 1 µM was in the range of 2 to 7%, the activation at 10 µM was in the range of 10 to 17% and the activation at 100 µM is 9 to 16%.

On to `Cc1cn([C@H]2C[C@H](OC(=O)OC(C)(C)C)[C@@H](COC(=O)OC(C)(C)C)O2)c(=O)[nH]c1=O` [T23], for which, under setting [1], the activation at 1 µM fell in the range of 2 to 7%, the activation at 10 µM was in the range of 5 to 11% and the activation at 100 µM lay in the range of 20 to 26%.

Consider `Cc1cn([C@H]2C[C@H](OC(=O)C(C)(C)C)[C@@H](COC(=O)C(C)(C)C)O2)c(=O)[nH]c1=O` [T24], for which, under setting [1], the activation at 1 µM fell in the range of 27 to 35% and the activation at 10 µM was in the range of 21 to 27%.

Regarding `Cc1cn([C@H]2C[C@H](O)[C@@H](COC(=O)[C@H](C)c3ccc(-c4ccccc4)c(F)c3)O2)c(=O)[nH]c1=O` [T29], the “Cell Survival Rate (increased percentage of cell survival compared with the Group of 5-FU)” value under setting [2] is on record as 19%-25%; the “Cell Survival Rate (increased percentage of cell survival compared with the Group of 5-FU)” value under setting [3] is 19%-27%; the “Cell Survival Rate (increased percentage of cell survival compared with the Group of 5-FU)” value under setting [4] is 35%-42%; the “Cell Survival Rate (increased percentage of cell survival compared with the Group of 5-FU)” value under setting [5] is given as 43%-50%; the “Cell Survival Rate (increased percentage of cell survival compared with the Group of 5-FU)” value under setting [6] was 69%-76%; the “Cell Survival Rate (increased percentage of cell survival compared with the Group of 5-FU)” value under setting [7] was 54%-62%. Moreover, under setting [8], the “Cell Survival Rate (increased percentage of cell survival compared with the Group of 5-FU)” value is listed as 48%-54%.

Regarding `Cc1cn([C@H]2C[C@H](O)[C@@H](COC(=O)C(C)c3ccc(CC(C)C)cc3)O2)c(=O)[nH]c1=O` (some centres unmarked) [T30], the “Cell Survival Rate (increased percentage of cell survival compared with the Group of 5-FU)” value is, setting by setting: under setting [4], 39%-47%; under setting [5], 45%-53%; under setting [6], 54%-61%; under setting [7], 44%-51%; under setting [8], 39%-46%.

On to `Cc1cn([C@H]2C[C@H](O)[C@@H](COC(=O)[C@@H](C)c3ccc(CC(C)C)cc3)O2)c(=O)[nH]c1=O` [T31], for which the “Cell Survival Rate (increased percentage of cell survival compared with the Group of 5-FU)” value under setting [2] is on record as 23%-30%; the “Cell Survival Rate (increased percentage of cell survival compared with the Group of 5-FU)” value under setting [3] is listed as 29%-38%; the “Cell Survival Rate (increased percentage of cell survival compared with the Group of 5-FU)” value under setting [4] is recorded as 37%-43%; the “Cell Survival Rate (increased percentage of cell survival compared with the Group of 5-FU)” value under setting [5] is recorded as 41%-47%; the “Cell Survival Rate (increased percentage of cell survival compared with the Group of 5-FU)” value under setting [6] is reported as 44%-51%.
